Measurements taken from PubChem BioAssay (NCI).
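Five compound concentrations were applied to cells in 96-well plates for 48 hours; endpoints were derived by simple linear interpolation of the resulting dose-response curve. TGI denotes the concentration required for complete inhibition of growth.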

How the values were obtained:
Test in all cases: NCI anticancer screen, dose series, 48 h
[1] = test system: 786-0 renal
[2] = test system: A498 renal
[3] = test system: A549 NSCLC
[4] = test system: ACHN renal
[5] = test system: BT-549 breast
[6] = test system: CAKI-1 renal
[7] = test system: COLO 205 colon
[8] = test system: DU-145 prostate
[9] = test system: EKVX NSCLC
[10] = test system: HCC-2998 colon
[11] = test system: HCT-116 colon
[12] = test system: HCT-15 colon
[13] = test system: HL-60(TB) leukemia
[14] = test system: HOP-62 NSCLC
[15] = test system: HOP-92 NSCLC
[16] = test system: HS 578T breast
[17] = test system: HT29 colon
[18] = test system: IGROV1 ovarian
[19] = test system: K-562 leukemia
[20] = test system: KM12 colon
[21] = test system: LOX IMVI melanoma
[22] = test system: M14 melanoma
[23] = test system: MCF7 breast
[24] = test system: MDA-MB-231 breast
[25] = test system: MDA-MB-435
[26] = test system: MDA-N
[27] = test system: MOLT-4 leukemia
[28] = test system: NCI-H226 lung
[29] = test system: NCI-H460 lung
[30] = test system: NCI-H522 lung
[31] = test system: NCI/ADR-RES ovarian
[32] = test system: OVCAR-3 ovarian
[33] = test system: OVCAR-4 ovarian
[34] = test system: OVCAR-5 ovarian
[35] = test system: OVCAR-8 ovarian
[36] = test system: PC-3 prostate
[37] = test system: RPMI-8226 leukemia
[38] = test system: SF-268 CNS
[39] = test system: SF-295 CNS
[40] = test system: SF-539 CNS
[41] = test system: SK-MEL-2 melanoma
[42] = test system: SK-MEL-28 melanoma
[43] = test system: SK-MEL-5 melanoma
[44] = test system: SK-OV-3 ovarian
[45] = test system: SN12C renal
[46] = test system: SNB-19 CNS
[47] = test system: SNB-75 CNS
[48] = test system: SR leukemia
[49] = test system: SW-620 colon
[50] = test system: T-47D breast
[51] = test system: TK-10 renal
[52] = test system: U251 CNS
[53] = test system: UACC-257 melanoma
[54] = test system: UACC-62 melanoma
[55] = test system: UO-31 renal
[56] = test system: CCRF-CEM leukemia
[57] = test system: NCI-H23 lung
[58] = test system: RXF 393 renal
[59] = test system: MALME-3M melanoma

Structure (SMILES): C=C([C@@]1(O)C[C@H]2[C@H](CCC2(OC)OC)[C@@H]2c3ccccc3O[C@@H]21)[Si](C)(C)C
- TGI [1]: > 100 µM
- TGI [2]: > 100 µM
- TGI [3]: > 100 µM
- TGI [4]: > 100 µM
- TGI [5]: > 100 µM
- TGI [6]: > 100 µM
- TGI [7]: > 100 µM
- TGI [8]: > 100 µM
- TGI [9]: > 100 µM
- TGI [10]: > 100 µM
- TGI [11]: > 100 µM
- TGI [12]: > 100 µM
- TGI [13]: 98.6 µM
- TGI [14]: > 100 µM
- TGI [15]: > 100 µM
- TGI [16]: > 100 µM
- TGI [17]: > 100 µM
- TGI [18]: > 100 µM
- TGI [19]: > 100 µM
- TGI [20]: > 100 µM
- TGI [21]: > 100 µM
- TGI [22]: > 100 µM
- TGI [23]: > 100 µM
- TGI [24]: > 100 µM
- TGI [25]: > 100 µM
- TGI [26]: > 100 µM
- TGI [27]: > 100 µM
- TGI [28]: > 100 µM
- TGI [29]: > 100 µM
- TGI [30]: > 100 µM
- TGI [31]: > 100 µM
- TGI [32]: > 100 µM
- TGI [33]: > 100 µM
- TGI [34]: > 100 µM
- TGI [35]: > 100 µM
- TGI [36]: > 100 µM
- TGI [37]: > 100 µM
- TGI [38]: > 100 µM
- TGI [39]: > 100 µM
- TGI [40]: > 100 µM
- TGI [41]: > 100000 nM
- TGI [42]: > 100 µM
- TGI [43]: > 100 µM
- TGI [44]: > 100 µM
- TGI [45]: > 100 µM
- TGI [46]: > 100 µM
- TGI [47]: > 100 µM
- TGI [48]: > 100 µM
- TGI [49]: > 100 µM
- TGI [50]: > 100 µM
- TGI [51]: > 100 µM
- TGI [52]: > 100 µM
- TGI [53]: > 100 µM
- TGI [54]: > 100 µM
- TGI [55]: > 100 µM

Structure (SMILES): O=C1c2ccccc2C2(c3ccc(Cl)cc3)N[C@H]3CCCC[C@@H]3N12 (some centres not stated)
- TGI [1]: > 100 µM
- TGI [2]: > 100 µM
- TGI [3]: > 100 µM
- TGI [4]: > 100 µM
- TGI [5]: > 100 µM
- TGI [6]: > 100 µM
- TGI [56]: > 100 µM
- TGI [7]: > 100 µM
- TGI [8]: > 100 µM
- TGI [9]: > 100 µM
- TGI [11]: > 100 µM
- TGI [12]: > 100 µM
- TGI [13]: > 100 µM
- TGI [14]: > 100 µM
- TGI [15]: > 100 µM
- TGI [16]: > 100 µM
- TGI [17]: > 100 µM
- TGI [18]: > 100 µM
- TGI [19]: > 100 µM
- TGI [20]: > 100 µM
- TGI [21]: > 100 µM
- TGI [24]: > 100 µM
- TGI [25]: > 100 µM
- TGI [26]: > 100 µM
- TGI [27]: > 100 µM
- TGI [28]: > 100 µM
- TGI [57]: > 100 µM
- TGI [31]: > 100 µM
- TGI [32]: > 100 µM
- TGI [33]: > 100 µM
- TGI [35]: > 100 µM
- TGI [36]: > 100 µM
- TGI [37]: > 100 µM
- TGI [58]: > 100 µM
- TGI [38]: > 100 µM
- TGI [39]: > 100 µM
- TGI [42]: > 100 µM
- TGI [43]: > 100 µM
- TGI [44]: > 100 µM
- TGI [45]: > 100 µM
- TGI [46]: > 100 µM
- TGI [47]: > 100 µM
- TGI [48]: > 100 µM
- TGI [49]: > 100 µM
- TGI [50]: > 100 µM
- TGI [51]: > 100 µM
- TGI [52]: > 100 µM
- TGI [53]: > 100 µM
- TGI [54]: > 100 µM
- TGI [55]: > 100 µM

Structure (SMILES): CC1=CC(C/C(C)=C/COc2ccc3ccc(=O)oc3c2)OC1=O (configuration not stated)
- TGI [1]: > 100 µM
- TGI [3]: > 100 µM
- TGI [4]: > 100 µM
- TGI [5]: > 100 µM
- TGI [6]: > 100 µM
- TGI [56]: > 100 µM
- TGI [7]: > 100 µM
- TGI [8]: > 100 µM
- TGI [9]: > 100 µM
- TGI [10]: > 100 µM
- TGI [11]: > 100 µM
- TGI [12]: > 100 µM
- TGI [13]: > 100 µM
- TGI [14]: > 100 µM
- TGI [15]: > 100 µM
- TGI [16]: > 100 µM
- TGI [17]: > 100 µM
- TGI [18]: > 100 µM
- TGI [19]: > 100 µM
- TGI [20]: > 100 µM
- TGI [21]: > 100 µM
- TGI [22]: > 100 µM
- TGI [23]: > 100 µM
- TGI [24]: > 100 µM
- TGI [25]: > 100 µM
- TGI [26]: > 100 µM
- TGI [27]: > 100 µM
- TGI [28]: > 100 µM
- TGI [57]: > 100 µM
- TGI [29]: > 100 µM
- TGI [30]: > 100 µM
- TGI [31]: > 100 µM
- TGI [32]: > 100 µM
- TGI [33]: > 100 µM
- TGI [34]: > 100 µM
- TGI [35]: > 100 µM
- TGI [36]: > 100 µM
- TGI [58]: > 100 µM
- TGI [38]: > 100 µM
- TGI [39]: > 100 µM
- TGI [40]: > 100 µM
- TGI [42]: > 100 µM
- TGI [43]: > 100 µM
- TGI [44]: > 100 µM
- TGI [45]: > 100 µM
- TGI [46]: > 100 µM
- TGI [47]: > 100 µM
- TGI [48]: > 100 µM
- TGI [49]: > 100 µM
- TGI [50]: > 100 µM
- TGI [51]: > 100 µM
- TGI [52]: > 100 µM
- TGI [53]: > 100 µM
- TGI [54]: > 100 µM
- TGI [55]: > 100 µM

Structure (SMILES): CC1=C(O)C(=O)C=C2C1=CC=C1[C@@]2(C)CC[C@@]2(C)[C@@H]3C[C@](C)(C(=O)O)CC[C@]3(C)CC[C@]12C
- TGI [1]: 0.0294 µM
- TGI [2]: 0.142 µM
- TGI [3]: 2.03 µM
- TGI [4]: 0.0459 µM
- TGI [5]: 0.0347 µM
- TGI [6]: 0.0375 µM
- TGI [56]: 0.15 µM
- TGI [7]: 0.041 µM
- TGI [8]: 0.202 µM
- TGI [9]: 0.174 µM
- TGI [10]: 0.155 µM
- TGI [11]: 0.0637 µM
- TGI [12]: 0.0282 µM
- TGI [13]: 0.0585 µM
- TGI [14]: 0.963 µM
- TGI [15]: 0.0777 µM
- TGI [16]: 3.7 µM
- TGI [17]: 0.145 µM
- TGI [18]: 0.0428 µM
- TGI [19]: 0.0617 µM
- TGI [20]: 0.412 µM
- TGI [21]: 0.0414 µM
- TGI [22]: 0.141 µM
- TGI [59]: 152 nM
- TGI [23]: 0.266 µM
- TGI [24]: 0.0664 µM
- TGI [25]: 0.157 µM
- TGI [26]: 0.075 µM
- TGI [28]: 0.366 µM
- TGI [57]: 0.181 µM
- TGI [29]: 0.384 µM
- TGI [30]: 0.0389 µM
- TGI [31]: 0.107 µM
- TGI [32]: 0.0941 µM
- TGI [33]: 0.174 µM
- TGI [34]: 0.332 µM
- TGI [35]: 0.0712 µM
- TGI [36]: 0.185 µM
- TGI [37]: 0.0585 µM
- TGI [58]: 0.024 µM
- TGI [38]: 0.106 µM
- TGI [39]: 0.54 µM
- TGI [40]: 0.331 µM
- TGI [41]: 219 nM
- TGI [42]: 0.0345 µM
- TGI [43]: 0.228 µM
- TGI [44]: 1 µM
- TGI [45]: 0.142 µM
- TGI [46]: 0.23 µM
- TGI [47]: 0.327 µM
- TGI [48]: 0.0336 µM
- TGI [50]: 0.0807 µM
- TGI [51]: 0.0804 µM
- TGI [52]: 0.139 µM
- TGI [53]: 0.1 µM
- TGI [54]: 0.0669 µM
- TGI [55]: 0.151 µM
